# According to patent US8501953B2, “PKM2 modulators for use in the treatment of cancer” (Agios Pharmaceuticals, Inc, priority 2009, dated 2013):
# Molecular target: PKM2 (Homo sapiens, UniProt P14618)
# Assay: PKM2 Assay (activation; LDH-coupled, NADH absorbance at 340 nm)
# Assay type: biochemical
# Conditions: PKM2 50 ng/well, ADP 0.7 mM, PEP 0.15 mM, no FBP in Reaction Mix
# Method in brief: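 Recombinant PKM2 (50 ng/well) was preincubated with compound for 30 min at 4° C. in 50 mM Tris pH 7.5, 100 mM KCl, 5 mM MgCl2, 1 mM DTT, 0.03% BSA with 0.15 mM PEP, 180 μM NADH and LDH. Reaction was started with 0.7 mM ADP; NADH absorbance change at 340 nm followed at 25° C.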
# Chain of PKM2 (P14618 whole entry): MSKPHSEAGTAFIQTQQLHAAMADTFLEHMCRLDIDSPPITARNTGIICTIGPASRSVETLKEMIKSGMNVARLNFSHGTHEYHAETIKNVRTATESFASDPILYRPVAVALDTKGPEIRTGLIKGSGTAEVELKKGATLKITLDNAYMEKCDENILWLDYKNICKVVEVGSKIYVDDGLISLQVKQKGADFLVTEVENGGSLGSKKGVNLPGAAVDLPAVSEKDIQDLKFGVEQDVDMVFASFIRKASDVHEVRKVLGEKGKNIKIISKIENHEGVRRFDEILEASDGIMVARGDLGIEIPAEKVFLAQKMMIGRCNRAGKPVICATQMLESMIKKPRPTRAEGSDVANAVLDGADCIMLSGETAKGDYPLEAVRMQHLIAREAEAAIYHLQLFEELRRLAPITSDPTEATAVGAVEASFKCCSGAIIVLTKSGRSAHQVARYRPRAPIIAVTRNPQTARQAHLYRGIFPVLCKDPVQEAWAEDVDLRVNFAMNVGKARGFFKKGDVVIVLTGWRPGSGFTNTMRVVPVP
row,SMILES,AC50 [µM]
1,Cc1cc2oc(=O)n(C)c2cc1NS(=O)(=O)c1ccc(F)cc1,10 to 50
2,Cn1c(=O)sc2cc(NS(=O)(=O)c3cccs3)ccc21,10 to 50
3,Cc1cc(C)cc(NS(=O)(=O)c2cc3oc(=O)n(C)c3cc2C)c1,< 1
4,CC(=O)Nc1ccc(NS(=O)(=O)c2cc3c(cc2C)oc(=O)n3C)cc1,> 100
5,CCn1c(=O)oc2cc(C)c(S(=O)(=O)Nc3ccccc3Cl)cc21,10 to 50
6,Cn1c(=O)oc2cc(F)c(S(=O)(=O)N3CCN(S(=O)(=O)c4c(F)cccc4F)CC3)cc21,< 1
7,Cc1cc2oc(=O)n(C)c2cc1NS(=O)(=O)c1cc(Cl)cc(Cl)c1,10 to 50
8,COc1ccc(Cl)cc1S(=O)(=O)N1CCN(S(=O)(=O)c2ccc3c(c2)sc(=O)n3C)CC1,1 to 10
9,Cn1c(=O)oc2cc(Cl)c(S(=O)(=O)Nc3ccccc3Cl)cc21,1 to 10

# The remaining lines, values ahead:
row,AC50 [µM],SMILES
1,< 1,Cn1c(=O)oc2cc(S(=O)(=O)N3CCN(S(=O)(=O)c4ccc5ccccc5c4)CC3)ccc21
2,1 to 10,Cn1c(=O)oc2cc(F)c(S(=O)(=O)Nc3ccc(Cl)cc3)cc21
3,< 1,Cn1c(=O)oc2cc(S(=O)(=O)Nc3cc(F)cc(Cl)c3)ccc21
4,1 to 10,COc1ccc(Cl)cc1S(=O)(=O)Nc1ccc2sc(=O)[nH]c2c1
5,< 1,Cn1c(=O)oc2cc(F)c(S(=O)(=O)N3CCN(S(=O)(=O)c4ccc5c(c4)OCCO5)CC3)cc21
6,< 1,Cc1cc(S(=O)(=O)Nc2ccc(F)c(Cl)c2)cc2oc(=O)n(CCN(C)C)c12
7,1 to 10,CCn1c(=O)sc2ccc(NS(=O)(=O)c3cc(C)ccc3OC)cc21
8,10 to 50,Cn1c(=O)oc2cc(Cl)c(S(=O)(=O)Nc3ccc(Cl)cc3)cc21
